{"source": "ChEMBL document CHEMBL5465560", "about": "“Selectivity Literature for EUbOPEN Chemogenomic Library” (2024)", "key": {"[1]": {"target": "Tyrosine-protein kinase ABL1 (Homo sapiens, UniProt P00519)", "sequence (P00519 whole entry)": "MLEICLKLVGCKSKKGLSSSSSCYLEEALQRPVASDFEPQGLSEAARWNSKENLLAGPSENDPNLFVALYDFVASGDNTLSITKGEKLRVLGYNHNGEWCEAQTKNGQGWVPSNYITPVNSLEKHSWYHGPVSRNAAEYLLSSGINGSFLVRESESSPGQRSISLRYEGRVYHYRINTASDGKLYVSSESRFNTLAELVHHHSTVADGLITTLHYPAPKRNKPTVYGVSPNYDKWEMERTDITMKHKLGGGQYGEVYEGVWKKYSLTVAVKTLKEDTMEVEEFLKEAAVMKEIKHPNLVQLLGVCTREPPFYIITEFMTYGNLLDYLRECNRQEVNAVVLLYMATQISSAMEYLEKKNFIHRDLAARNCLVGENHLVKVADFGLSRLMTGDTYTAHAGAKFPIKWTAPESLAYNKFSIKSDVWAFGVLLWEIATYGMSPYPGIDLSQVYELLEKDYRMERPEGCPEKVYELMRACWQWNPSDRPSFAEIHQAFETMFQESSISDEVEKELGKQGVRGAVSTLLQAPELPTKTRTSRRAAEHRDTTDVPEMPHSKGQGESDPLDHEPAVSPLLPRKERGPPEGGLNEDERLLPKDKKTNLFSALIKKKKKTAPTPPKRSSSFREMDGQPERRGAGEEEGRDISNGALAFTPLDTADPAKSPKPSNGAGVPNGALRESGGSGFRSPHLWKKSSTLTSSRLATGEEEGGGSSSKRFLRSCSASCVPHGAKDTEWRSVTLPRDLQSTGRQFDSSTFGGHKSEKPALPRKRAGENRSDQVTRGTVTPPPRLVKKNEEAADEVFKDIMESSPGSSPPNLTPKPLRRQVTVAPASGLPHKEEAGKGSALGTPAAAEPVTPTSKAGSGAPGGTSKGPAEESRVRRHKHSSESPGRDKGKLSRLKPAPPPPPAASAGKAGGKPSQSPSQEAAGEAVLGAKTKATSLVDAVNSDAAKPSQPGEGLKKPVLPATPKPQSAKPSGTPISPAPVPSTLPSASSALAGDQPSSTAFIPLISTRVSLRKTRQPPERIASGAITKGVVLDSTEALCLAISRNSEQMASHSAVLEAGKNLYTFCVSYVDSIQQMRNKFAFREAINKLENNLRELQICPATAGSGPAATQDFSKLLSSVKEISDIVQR", "experiment": "Selectivity interaction (Upstate Kinase Profiler service (Millipore)) EUB0000056c ABL1", "details": "at 1 µM"}, "[2]": {"target": "Serine/threonine-protein kinase B-raf (Homo sapiens) (UniProt P15056)", "details": "at 10 µM"}, "[3]": {"target": "Receptor tyrosine-protein kinase erbB-4 (Homo sapiens, UniProt Q15303)", "sequence (Q15303 whole entry)": "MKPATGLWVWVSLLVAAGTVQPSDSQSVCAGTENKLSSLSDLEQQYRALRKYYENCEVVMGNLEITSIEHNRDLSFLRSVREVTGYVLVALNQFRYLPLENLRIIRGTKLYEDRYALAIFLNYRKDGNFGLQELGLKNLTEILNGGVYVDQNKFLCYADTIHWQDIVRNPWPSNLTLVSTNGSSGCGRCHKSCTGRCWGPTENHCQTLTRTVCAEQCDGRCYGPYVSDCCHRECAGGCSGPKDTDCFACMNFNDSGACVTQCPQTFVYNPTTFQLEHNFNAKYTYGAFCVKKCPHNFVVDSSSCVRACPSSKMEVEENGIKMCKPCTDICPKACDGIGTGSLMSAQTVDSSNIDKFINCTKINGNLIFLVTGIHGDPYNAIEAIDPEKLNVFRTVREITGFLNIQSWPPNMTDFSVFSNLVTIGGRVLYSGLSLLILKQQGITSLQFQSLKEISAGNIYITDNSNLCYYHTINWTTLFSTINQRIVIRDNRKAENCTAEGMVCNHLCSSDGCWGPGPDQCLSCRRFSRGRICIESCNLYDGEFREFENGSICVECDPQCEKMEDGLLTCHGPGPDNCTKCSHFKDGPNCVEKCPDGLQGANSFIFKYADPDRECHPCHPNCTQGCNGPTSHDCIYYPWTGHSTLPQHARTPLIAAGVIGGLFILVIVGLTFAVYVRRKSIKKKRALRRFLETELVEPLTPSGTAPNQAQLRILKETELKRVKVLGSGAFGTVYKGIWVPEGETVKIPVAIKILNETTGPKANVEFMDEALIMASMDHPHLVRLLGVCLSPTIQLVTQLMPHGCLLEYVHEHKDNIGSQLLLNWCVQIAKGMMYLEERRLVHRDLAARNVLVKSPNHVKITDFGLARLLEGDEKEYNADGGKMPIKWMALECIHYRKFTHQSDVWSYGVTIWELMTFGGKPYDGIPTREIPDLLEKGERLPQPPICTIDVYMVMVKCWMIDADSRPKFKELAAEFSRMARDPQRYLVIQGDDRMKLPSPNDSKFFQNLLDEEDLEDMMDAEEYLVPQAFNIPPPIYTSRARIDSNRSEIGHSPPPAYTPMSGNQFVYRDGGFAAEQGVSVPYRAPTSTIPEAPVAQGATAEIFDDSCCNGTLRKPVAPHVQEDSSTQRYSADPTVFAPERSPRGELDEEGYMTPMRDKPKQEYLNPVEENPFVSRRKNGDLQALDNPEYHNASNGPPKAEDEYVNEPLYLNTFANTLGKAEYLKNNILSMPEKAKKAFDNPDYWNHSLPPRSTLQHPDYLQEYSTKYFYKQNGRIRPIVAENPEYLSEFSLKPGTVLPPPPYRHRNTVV", "experiment": "Selectivity interaction (ProQinase) EUB0000171b ERBB4"}, "[4]": {"target": "Sigma intracellular receptor 2 (Homo sapiens) (UniProt Q5BJF2)", "sequence (Q5BJF2 whole entry)": "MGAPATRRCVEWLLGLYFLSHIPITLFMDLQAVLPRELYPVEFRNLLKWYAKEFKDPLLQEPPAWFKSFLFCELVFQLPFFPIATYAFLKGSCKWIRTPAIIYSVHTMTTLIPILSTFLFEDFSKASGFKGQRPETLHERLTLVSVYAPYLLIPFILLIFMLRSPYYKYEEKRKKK", "experiment": "Selectivity interaction (GPCR panel (PDSP screen)) EUB0001079a TMEM97", "details": "at 10 µM"}, "[5]": {"target": "Non-receptor tyrosine-protein kinase TYK2 (Homo sapiens, UniProt P29597)", "experiment": "Selectivity interaction (KinomeScan (DiscoverX)) EUB0001079a TYK2", "details": "at 1 µM"}, "[6]": {"target": "Mitogen-activated protein kinase 9 (Homo sapiens, UniProt P45984)", "sequence (P45984 whole entry, looked up)": "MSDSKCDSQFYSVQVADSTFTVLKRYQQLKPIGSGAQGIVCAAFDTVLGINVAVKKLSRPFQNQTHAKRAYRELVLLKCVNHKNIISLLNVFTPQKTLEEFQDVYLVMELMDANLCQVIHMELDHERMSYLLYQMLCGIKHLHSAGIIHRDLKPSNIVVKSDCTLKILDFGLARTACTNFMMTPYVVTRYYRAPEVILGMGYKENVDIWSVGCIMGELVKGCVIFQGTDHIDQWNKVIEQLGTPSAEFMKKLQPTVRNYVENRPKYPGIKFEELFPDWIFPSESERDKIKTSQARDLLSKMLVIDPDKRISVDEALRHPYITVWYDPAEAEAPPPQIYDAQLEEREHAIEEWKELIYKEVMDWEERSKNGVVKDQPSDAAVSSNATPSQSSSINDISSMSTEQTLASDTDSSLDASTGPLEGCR", "experiment": "Selectivity interaction (Millipore kinase profiler) EUB0000124b MAPK9", "details": "at 10 µM"}, "[7]": {"target": "Ribosomal protein S6 kinase alpha-2 (Homo sapiens) (UniProt Q15349)", "sequence (Q15349 whole entry)": "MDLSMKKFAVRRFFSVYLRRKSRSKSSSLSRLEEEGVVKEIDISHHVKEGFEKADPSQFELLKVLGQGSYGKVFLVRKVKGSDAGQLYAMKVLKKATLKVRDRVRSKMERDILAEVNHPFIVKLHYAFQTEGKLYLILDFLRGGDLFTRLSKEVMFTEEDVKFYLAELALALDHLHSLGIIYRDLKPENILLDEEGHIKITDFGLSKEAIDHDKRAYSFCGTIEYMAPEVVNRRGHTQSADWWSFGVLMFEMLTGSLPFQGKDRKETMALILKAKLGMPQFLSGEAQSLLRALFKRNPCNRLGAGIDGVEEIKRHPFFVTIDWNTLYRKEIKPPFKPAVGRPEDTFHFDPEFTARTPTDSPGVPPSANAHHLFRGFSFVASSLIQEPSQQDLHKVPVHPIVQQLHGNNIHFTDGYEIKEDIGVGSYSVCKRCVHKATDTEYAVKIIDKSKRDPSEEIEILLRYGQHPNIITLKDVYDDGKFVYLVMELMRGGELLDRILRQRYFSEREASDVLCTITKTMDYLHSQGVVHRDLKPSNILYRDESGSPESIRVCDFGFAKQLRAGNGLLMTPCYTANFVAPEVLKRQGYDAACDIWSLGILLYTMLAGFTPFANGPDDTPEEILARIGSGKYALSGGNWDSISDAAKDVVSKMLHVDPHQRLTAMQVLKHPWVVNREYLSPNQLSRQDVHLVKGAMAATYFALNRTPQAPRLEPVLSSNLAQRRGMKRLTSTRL", "experiment": "Selectivity interaction (Kinase panel (Z-LYTE Assay)) EUB0001632a RPS6KA2", "details": "at 10 µM"}, "[8]": {"target": "T1, Phosphatidylinositol 4,5-bisphosphate 3-kinase catalytic subunit delta isoform (Homo sapiens) (UniProt O00329)", "T1 sequence (whole entry)": "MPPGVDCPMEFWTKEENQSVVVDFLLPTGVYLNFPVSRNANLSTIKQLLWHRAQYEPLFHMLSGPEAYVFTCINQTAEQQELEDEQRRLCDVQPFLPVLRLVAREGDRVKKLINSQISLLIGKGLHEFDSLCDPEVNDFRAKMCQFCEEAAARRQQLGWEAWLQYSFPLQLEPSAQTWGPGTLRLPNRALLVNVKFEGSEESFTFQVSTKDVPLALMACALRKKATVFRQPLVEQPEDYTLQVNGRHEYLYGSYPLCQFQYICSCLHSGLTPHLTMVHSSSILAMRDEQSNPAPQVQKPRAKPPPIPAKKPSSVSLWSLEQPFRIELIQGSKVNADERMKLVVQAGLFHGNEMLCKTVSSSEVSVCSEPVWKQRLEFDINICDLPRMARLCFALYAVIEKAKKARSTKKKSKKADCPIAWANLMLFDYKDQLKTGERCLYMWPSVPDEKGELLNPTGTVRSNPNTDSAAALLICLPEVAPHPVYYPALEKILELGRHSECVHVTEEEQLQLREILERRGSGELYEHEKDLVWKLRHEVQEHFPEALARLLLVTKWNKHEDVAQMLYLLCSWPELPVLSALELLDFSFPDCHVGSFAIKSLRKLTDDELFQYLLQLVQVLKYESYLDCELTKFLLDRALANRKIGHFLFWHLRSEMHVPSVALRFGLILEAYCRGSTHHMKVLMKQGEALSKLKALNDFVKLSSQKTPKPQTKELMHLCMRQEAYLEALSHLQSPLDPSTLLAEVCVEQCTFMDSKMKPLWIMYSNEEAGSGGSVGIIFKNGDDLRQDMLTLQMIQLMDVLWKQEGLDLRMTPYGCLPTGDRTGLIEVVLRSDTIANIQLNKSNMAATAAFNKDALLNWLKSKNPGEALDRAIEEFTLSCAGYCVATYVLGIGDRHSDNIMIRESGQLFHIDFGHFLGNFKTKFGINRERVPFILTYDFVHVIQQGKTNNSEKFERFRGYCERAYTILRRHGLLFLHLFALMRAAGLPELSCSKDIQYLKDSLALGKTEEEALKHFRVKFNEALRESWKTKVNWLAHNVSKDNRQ", "experiment": "Selectivity interaction (ActivX KiNativ screen (kinase selectivity in THP-1 cell lysates)) EUB0000639a PIK3CD", "format": "subcellular", "details": "lysate, at 1 µM"}, "[9]": {"target": "RAC-gamma serine/threonine-protein kinase (Homo sapiens, UniProt Q9Y243)", "experiment": "Selectivity interaction (SelectScreen profiling (Invitrogen)) EUB0000607a AKT3", "details": "at 2 µM"}, "[10]": {"target": "Tyrosine-protein kinase ABL2 (Homo sapiens, UniProt P42684)", "sequence (P42684 whole entry)": "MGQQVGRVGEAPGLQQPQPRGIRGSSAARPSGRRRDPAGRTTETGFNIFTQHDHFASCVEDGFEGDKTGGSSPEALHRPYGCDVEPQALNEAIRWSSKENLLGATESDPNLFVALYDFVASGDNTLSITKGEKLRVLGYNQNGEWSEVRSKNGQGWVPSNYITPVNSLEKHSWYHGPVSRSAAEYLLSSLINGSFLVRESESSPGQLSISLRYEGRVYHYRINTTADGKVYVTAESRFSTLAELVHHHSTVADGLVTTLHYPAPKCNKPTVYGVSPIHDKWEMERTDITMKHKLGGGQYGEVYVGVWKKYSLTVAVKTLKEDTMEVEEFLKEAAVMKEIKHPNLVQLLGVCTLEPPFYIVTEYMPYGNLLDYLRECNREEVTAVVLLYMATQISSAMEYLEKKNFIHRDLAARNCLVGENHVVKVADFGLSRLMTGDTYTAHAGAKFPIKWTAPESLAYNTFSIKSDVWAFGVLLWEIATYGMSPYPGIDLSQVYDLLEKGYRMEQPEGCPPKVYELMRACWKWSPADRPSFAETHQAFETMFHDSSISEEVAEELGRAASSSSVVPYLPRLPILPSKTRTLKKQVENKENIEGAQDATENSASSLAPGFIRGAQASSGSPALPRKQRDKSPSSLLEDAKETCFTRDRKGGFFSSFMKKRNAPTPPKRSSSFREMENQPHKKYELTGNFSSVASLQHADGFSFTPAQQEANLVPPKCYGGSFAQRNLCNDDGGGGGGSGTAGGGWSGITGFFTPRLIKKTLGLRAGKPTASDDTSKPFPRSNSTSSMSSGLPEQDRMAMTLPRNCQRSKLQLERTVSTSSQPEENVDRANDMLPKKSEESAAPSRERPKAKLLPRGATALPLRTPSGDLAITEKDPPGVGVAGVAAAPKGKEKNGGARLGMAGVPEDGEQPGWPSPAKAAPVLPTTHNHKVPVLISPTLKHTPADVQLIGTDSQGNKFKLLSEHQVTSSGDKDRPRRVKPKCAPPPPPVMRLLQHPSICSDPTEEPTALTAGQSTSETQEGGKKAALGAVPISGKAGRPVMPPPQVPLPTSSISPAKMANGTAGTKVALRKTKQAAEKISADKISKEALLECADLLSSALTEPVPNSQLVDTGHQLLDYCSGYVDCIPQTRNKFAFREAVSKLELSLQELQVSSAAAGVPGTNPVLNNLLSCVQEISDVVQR", "experiment": "Selectivity interaction (SelectScreen profiling (Invitrogen)) EUB0000607a ABL2", "details": "at 2 µM"}, "[11]": {"target": "T2, Serine/threonine-protein kinase haspin (Homo sapiens) (UniProt Q8TF76)", "T2 sequence (whole entry)": "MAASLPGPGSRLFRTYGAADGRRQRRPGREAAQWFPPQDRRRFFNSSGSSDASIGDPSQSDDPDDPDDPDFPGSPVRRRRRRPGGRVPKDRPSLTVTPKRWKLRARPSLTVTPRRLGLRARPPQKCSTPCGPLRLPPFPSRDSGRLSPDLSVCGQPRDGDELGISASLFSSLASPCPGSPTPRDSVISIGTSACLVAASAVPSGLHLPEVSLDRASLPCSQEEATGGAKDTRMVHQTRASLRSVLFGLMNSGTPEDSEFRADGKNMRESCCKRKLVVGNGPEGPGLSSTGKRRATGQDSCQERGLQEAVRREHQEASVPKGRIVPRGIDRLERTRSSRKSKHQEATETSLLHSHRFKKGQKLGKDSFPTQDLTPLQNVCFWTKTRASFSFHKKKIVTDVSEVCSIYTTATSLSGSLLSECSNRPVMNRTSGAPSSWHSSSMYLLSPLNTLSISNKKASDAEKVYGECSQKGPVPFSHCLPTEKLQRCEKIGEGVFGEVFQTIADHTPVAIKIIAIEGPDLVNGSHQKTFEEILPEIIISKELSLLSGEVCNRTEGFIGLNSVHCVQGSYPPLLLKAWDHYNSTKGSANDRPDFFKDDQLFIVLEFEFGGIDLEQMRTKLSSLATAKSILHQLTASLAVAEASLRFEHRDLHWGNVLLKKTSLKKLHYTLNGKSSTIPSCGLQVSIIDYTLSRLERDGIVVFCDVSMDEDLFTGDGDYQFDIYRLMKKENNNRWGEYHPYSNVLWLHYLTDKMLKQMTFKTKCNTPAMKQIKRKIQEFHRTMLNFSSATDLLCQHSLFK", "experiment": "Selectivity interaction (KinomeScan (DiscoverX)) EUB0001049a GSG2", "details": "at 1 µM"}, "[12]": {"target": "Insulin-like growth factor 1 receptor (Homo sapiens, UniProt P08069)", "experiment": "Selectivity interaction (KinomeScan (DiscoverX)) EUB0000695a IGF1R", "details": "at 100 nM"}, "[13]": {"target": "Serine/threonine-protein kinase pim-2 (Homo sapiens, UniProt Q9P1W9)", "experiment": "Selectivity interaction (Kinase panel (literature)) EUB0001199aCl PIM2", "details": "at 1 µM"}, "[14]": {"target": "Serine/threonine-protein kinase PAK 2 (Homo sapiens) (UniProt Q13177)", "experiment": "Selectivity interaction (KinomeScan (DiscoverX)) EUB0001619a PAK2", "details": "at 1 µM"}}, "data": [{"compound": "Cc1ccc(-c2ccc3c(ccc4sc5c(c43)NC[C@@H](C)NC5=O)n2)cn1", "values": [{"measurement": "% of inhibition", "setting": "[1]", "value": 18, "unit": "%"}]}, {"compound": "CN(C)CCOc1ccc(-c2nc(-c3ccncc3)c(-c3ccc4c(c3)CC/C4=N\\O)[nH]2)cc1", "values": [{"measurement": "% of control", "setting": "[2]", "value": 0, "unit": "%"}]}, {"compound": "C=CC(=O)Nc1cccc(C(=O)Nc2ccc(Nc3cc(-c4[nH]c(SC)nc4C)ccn3)cc2)c1", "values": [{"measurement": "% of control", "setting": "[3]; at 1 µM", "value": 93, "unit": "%"}, {"measurement": "% of control", "setting": "[3]; at 5 µM", "value": 90, "unit": "%"}]}, {"compound": "Nc1cnc(N2CCc3cc(S(=O)(=O)Nc4c(F)cc(Cl)cc4F)cc(N4CCCC4=O)c32)nc1", "note": "[TP-020n]", "values": [{"measurement": "% of inhibition", "setting": "[4]", "value": -12, "unit": "%"}, {"measurement": "% of control", "setting": "[5]", "value": 100, "unit": "%"}]}, {"compound": "CC(=O)Nc1cccc(-n2c(=O)n(C3CC3)c(=O)c3c(Nc4ccc(I)cc4F)n(C)c(=O)c(C)c32)c1", "values": [{"measurement": "% of control", "setting": "[6]", "value": 97, "unit": "%"}]}, {"compound": "Cn1cc(-n2cnc3c(NCc4nc5cc(Cl)c(Cl)cc5[nH]4)nc(N4CCOCC4)nc32)cn1", "values": [{"measurement": "% of control", "setting": "[7]", "value": 1.22, "unit": "%"}]}, {"compound": "CC[C@@H]1[C@H](F)C(=O)N[C@@H]1COc1nccc2cc(C(N)=O)c(OC)cc12", "note": "[ZIMLOVISERTIB]", "values": [{"measurement": "% of inhibition", "setting": "[8]", "value": -2.6, "unit": "%"}]}, {"compound": "CNC(=O)Nc1ccc(-c2nc(N3CC4CCC(C3)O4)c3cnn(C4CCC5(CC4)OCCO5)c3n2)cc1", "values": [{"measurement": "% of inhibition", "setting": "[9]", "value": 2, "unit": "%"}, {"measurement": "% of inhibition", "setting": "[10]", "value": 13, "unit": "%"}]}, {"compound": "COc1cc(Nc2nc(C)cc(-c3cnn4nc(OC)ccc34)n2)cc(C(F)(F)F)c1", "values": [{"measurement": "% of control", "setting": "[11]", "value": 100, "unit": "%"}]}, {"compound": "Cc1cc(F)c(C(=O)Nc2cccc(-c3nncn3C(C)C)n2)cc1-n1cnc(C2CC2)c1", "values": [{"measurement": "% of control", "setting": "[12]", "value": 100, "unit": "%"}]}, {"compound": "CN1Cc2nccc(-c3cn(C)nc3-c3ccc(F)cc3)c2C1=O", "values": [{"measurement": "% of inhibition", "setting": "[13]", "value": -2, "unit": "%"}]}, {"compound": "N#Cc1cccc(-c2c[nH]c3ncnc(N4CCOCC4)c23)c1", "values": [{"measurement": "% of control", "setting": "[14]", "value": 100, "unit": "%"}]}]}
